Patent US9561228B2 (Celgene Avilomics Research, Inc., priority 2013, dated 2017)

Key:
[1] = target: T1, MEK1 activated ERK1 (Homo sapiens, UniProt P27361); experiment: Omnia continuous-read kinase assay for potency against MEK1 activated ERK1; type: biochemical; settings: MEK1 activated ERK1, ATP at KM; read-out: ERK1 Omnia WT ATP KM IC50
T1 construct: purchased Millipore (Billerica, Mass.) 14-439-K
Outline: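 Apparent IC50 came from initial reaction slopes (RFU vs time) plotted against log inhibitor with a variable-slope fit. Reactions were started with ERK1 (4 nM final) added to 50 μM ATP, roughly at its appKM, and 10 μM Sox-conjugated ST17 peptide in 20 mM Tris pH 7.5, 5 mM MgCl2. Fluorescence was monitored every 71 seconds.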

[2] = test system: ERK1/2 phosphorylation of p90RSK in HT29 cells; experiment: pRSK MSD Assay in HT29 cells; type: cell-based; settings: Homo sapiens, HT-29, read-out: ERK1/ERK2 PRSK MSD HT29 EC50
Outline: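 Serum-starved HT29 cells (0.1% FBS overnight) treated with test compound for 120 min at 37° C, then lysed with protease and phosphatase inhibitors. Phospho-p90RSK quantified by MSD sandwich immunoassay: RSK capture antibody, phospho-RSK detection antibody plus Sulfo-tagged antibody, electrochemiluminescence read.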

[3] = test system: HT-29 cells (colorectal adenocarcinoma); experiment: Inhibition of cancer cell proliferation, HT-29 (CellTiterGlo, 72 hours); type: cell-based; settings: Homo sapiens
Protocol: Measurement of Inhibition of Cancer Cell Proliferation (HT-29/Colorectal Adenocarcinoma)
The following protocol used an HT-29 cell line, which cell line is a model for colorectal adenocarcinoma. HT-29 cells were split and 3000 cells in 100 μl of growth medium were added per well of a flat-bottom 96-well plate. A two-fold test compound solution in serum-free RPM1640 was made, starting at 5,000 nM. Then, 3-fold serial dilutions were made across the plate from well 1 to well 11. Well 12, the last well in a row on the plate, was left as untreated control. 100 μl compound solutions were then transferred to the wells, so the total volume of media was 200 μl per well. Plates were returned to a 37° C. incubator, and the cells were cultured for 72 hours. To measure cell proliferation after 72 hours, media was discarded from the plates, 50 μl/well of fresh medium was added, and 50 μl CellTiterGlo solution was added (Promega Cat#G7573). The plate was covered with a dark lid and incubated for 10 min. A white sealing tape was applied to the bottom of the plate, and the plate was read in a luminescence plate reader. […] A 2-fold serial dilution was used to generate 8 cell densities from 50,000-390 cells per well in 50 μl media. 50 μl CellTiterGlo was added per well, and the plate was read in a luminescence plate reader after 10 min. The reading was plotted vs. cell number to generate a standard curve and the equation of the curve fit. The compound-treated sample luminescence readings were converted to cell numbers using the curve-fit equation. The percent of inhibition, using untreated control as 100% growth, was then calculated. GI50 was then calculated by GraphPad Prism.

T1 sequence (P27361 whole entry): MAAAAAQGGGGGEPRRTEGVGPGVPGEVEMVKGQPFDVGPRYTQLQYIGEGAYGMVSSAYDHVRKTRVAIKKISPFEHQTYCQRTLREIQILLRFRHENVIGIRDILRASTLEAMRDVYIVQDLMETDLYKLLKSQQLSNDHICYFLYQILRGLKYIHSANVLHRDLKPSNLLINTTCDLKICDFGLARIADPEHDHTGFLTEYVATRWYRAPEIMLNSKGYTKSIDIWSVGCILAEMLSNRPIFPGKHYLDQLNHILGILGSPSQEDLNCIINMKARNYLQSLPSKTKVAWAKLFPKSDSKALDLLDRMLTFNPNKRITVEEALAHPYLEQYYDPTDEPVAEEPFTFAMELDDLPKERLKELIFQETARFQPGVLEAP

**Q.** What does the source list for `C=CC(=O)Nc1cc(OC)ccc1Nc1nc(Nc2ccc3c(c2)CC(=O)N3CC)ncc1Cl` [Compound I-166, N-(2-((5-chloro-2-((1-ethyl-2-oxoindolin-5-yl)amino)pyrimidin-4-yl)amino)-5-methoxyphenyl)acrylamide]?
**A.** IC50 [1]: 101 to 500 nM; EC50 [2]: 101 to 500 nM; GI50 [3]: 101 to 500 nM

**Q.** `C=CC(=O)Nc1ccccc1Nc1nc(Nc2cc(C(=O)NOC)ccc2C#N)ncc1C(F)(F)F` [Compound I-72, 3-((4-((2-Acrylamidophenyl)amino)-5-(trifluoromethyl)pyrimidin-2-yl)amino)-4-cyano-N-methoxybenzamide] was tested. Which IC50 [1] did it give?
**A.** 101 to 500 nM

**Q.** What about the GI50 [3] of the same compound?
**A.** > 1000 nM

**Q.** With `C=CC(=O)Nc1cc(F)ccc1Nc1nc(N[C@@H]2CCC[C@H](C(N)=O)C2)ncc1Cl` (racemic) [Compound I-112, Rac-cis-3-((4-((2-acrylamido-4-fluorophenyl)amino)-5-chloropyrimidin-2-yl)amino)cyclohexanecarboxamide] as the compound, how does the IC50 [1] read?
**A.** < 100 nM

**Q.** What about the EC50 [2] of the same compound?
**A.** < 100 nM

**Q.** And the GI50 [3]?
**A.** 101 to 500 nM

**Q.** How did the IC50 [1] turn out when `C=CC(=O)N(C)c1ccccc1Nc1nc(N[C@@H]2CCC[C@H](C(N)=O)C2)ncc1Cl` (racemic) [Compound I-105, Rac-cis-3-((5-chloro-4-((2-(N-methylacrylamido)phenyl)amino)pyrimidin-2-yl)amino)cyclohexanecarboxamide] was run?
**A.** 501 to 999 nM

**Q.** And the EC50 [2]?
**A.** > 1000 nM

**Q.** And the GI50 [3]?
**A.** 501 to 999 nM

**Q.** With `C=CC(=O)Nc1ccccc1Nc1nc(Nc2ccc(OCCCNC(=O)CCCC(=O)NCCCOCCOCCOCCCNC(=O)CCCC[C@H]3SC[C@H]4NC(=O)N[C@H]43)cc2OC)ncc1Cl` [Compound I-302, N^1-(3-(4-((4-((2-acrylamidophenyl)amino)-5-chloropyrimidin-2-yl)amino)-3-methoxyphenoxy)propyl)-N^5-(15-oxo-19-((3aR,4R,6aS)-2-oxohexahydro-1H-thieno[3,4-d]imidazol-4-yl)-4,7,10-trioxa-14-azanonadecyl)glutaramide] as the compound, how does the EC50 [2] read?
**A.** > 1000 nM

**Q.** And the GI50 [3]?
**A.** > 1000 nM

**Q.** What does the source list for `C=CC(=O)Nc1ccccc1Nc1nc(NC2CCN(S(C)(=O)=O)CC2)ncc1C(F)(F)F` [Compound I-13, N-(2-((2-((1-(methylsulfonyl)piperidin-4-yl)amino)-5-(trifluoromethyl)pyrimidin-4-yl)amino)phenyl)acrylamide]?
**A.** EC50 [2]: 101 to 500 nM; GI50 [3]: 101 to 500 nM

**Q.** Which EC50 [2] does the source give for `C=CC(=O)Nc1ccccc1Nc1nc(Nc2cc(C(=O)NOC)ccc2C)ncc1C(F)(F)F` [Compound I-69, 3-((4-((2-Acrylamidophenyl)amino)-5-(trifluoromethyl)pyrimidin-2-yl)amino)-N-methoxy-4-methylbenzamide] here?
**A.** 101 to 500 nM

**Q.** What about the GI50 [3] of the same compound?
**A.** < 100 nM

**Q.** Which results are given for `C=CC(=O)Nc1cc(F)ccc1Nc1nc(Nc2ccc(F)cc2C#N)ncc1Cl` [Compound I-221, N-(2-((5-chloro-2-((2-cyano-4-fluorophenyl)amino)pyrimidin-4-yl)amino)-5-fluorophenyl)acrylamide]?
**A.** EC50 [2]: < 100 nM; GI50 [3]: 501 to 999 nM

**Q.** How did the EC50 [2] turn out when `C=CC(=O)Nc1ccccc1Nc1nc(NC2CCN(C=O)CC2)ncc1Cl` [Compound I-124, N-(2-((5-chloro-2-((1-formylpiperidin-4-yl)amino)pyrimidin-4-yl)amino)phenyl)acrylamide] was run?
**A.** < 100 nM

**Q.** And the GI50 [3]?
**A.** 101 to 500 nM

**Q.** Which EC50 [2] does the source give for `C=CC(=O)Nc1ccccc1Nc1nc(Nc2cc(C(N)=O)ccc2C#N)ncc1Cl` [Compound I-192, 3-((4-((2-acrylamidophenyl)amino)-5-chloropyrimidin-2-yl)amino)-4-cyanobenzamide] here?
**A.** < 100 nM

**Q.** And the GI50 [3]?
**A.** < 100 nM

**Q.** Which EC50 [2] does the source give for `C=CC(=O)Nc1ccccc1Nc1nc(Nc2cc(C(N)=O)ccc2CC)ncc1Cl` [Compound I-193, 3-((4-((2-acrylamidophenyl)amino)-5-chloropyrimidin-2-yl)amino)-4-ethylbenzamide] here?
**A.** 101 to 500 nM

**Q.** What about the GI50 [3] of the same compound?
**A.** 101 to 500 nM

**Q.** How did the IC50 [1] turn out when `C=CC(=O)Nc1ccccc1Oc1nc(Nc2ccc(N3CCC[C@@H]3C(N)=O)cc2OC)ncc1C(N)=O` [Compound I-266, (R)-4-(2-acrylamidophenoxy)-2-((4-(2-carbamoylpyrrolidin-1-yl)-2-methoxyphenyl)amino)pyrimidine-5-carboxamide] was run?
**A.** 101 to 500 nM

**Q.** And the GI50 [3]?
**A.** > 1000 nM

**Q.** Which results are given for `C=CC(=O)Nc1ccccc1Nc1nc(Nc2cc(C(N)=O)ccc2C#N)ncc1C(F)(F)F` [Compound I-71, 3-((4-((2-Acrylamidophenyl)amino)-5-(trifluoromethyl)pyrimidin-2-yl)amino)-4-cyanobenzamide]?
**A.** EC50 [2]: < 100 nM; GI50 [3]: 101 to 500 nM

**Q.** For `CCOCCC(=O)Nc1ccccc1Nc1nc(Nc2cc(C(N)=O)ccc2C)ncc1Cl` [Compound I-130], which GI50 [3] is on record?
**A.** > 1000 nM

**Q.** How did the EC50 [2] turn out when `C=CC(=O)Nc1cc(F)ccc1Nc1nc(Nc2cc(C(N)=O)ccc2OC)ncc1Cl` [Compound I-208] was run?
**A.** < 100 nM

**Q.** What about the GI50 [3] of the same compound?
**A.** 101 to 500 nM

**Q.** Which EC50 [2] does the source give for `C=CC(=O)Nc1ccccc1Nc1nc(N[C@H]2CCCN(C=O)C2)ncc1C(F)(F)F` [Compound I-9, (S)—N-(2-((2-((1-formylpiperidin-3-yl)amino)-5-(trifluoromethyl)pyrimidin-4-yl)amino)phenyl)acrylamide] here?
**A.** < 100 nM

**Q.** What about the GI50 [3] of the same compound?
**A.** 101 to 500 nM

**Q.** How did the GI50 [3] turn out when `C=CC(=O)Nc1ccccc1Oc1nc(Nc2ccc(N3CCN(C(C)=O)CC3)cc2OC)ncc1C(N)=O` [Compound I-258, 2-((4-(4-acetylpiperazin-1-yl)-2-methoxyphenyl)amino)-4-(2-acrylamidophenoxyl)pyrimidine-5-carboxamide] was run?
**A.** > 1000 nM

**Q.** How did the IC50 [1] turn out when `C=CC(=O)N[C@@H]1CCCC[C@H]1Nc1nc(Nc2cc(C(=O)NOC)ccc2C)ncc1C(N)=O` (racemic) [Compound I-256, Rac-trans-4-((2-acrylamidocyclohexyl)amino)-2-((5-(methoxycarbamoyl)-2-methylphenyl)amino)pyrimidine-5-carboxamide] was run?
**A.** > 1000 nM

**Q.** What about the GI50 [3] of the same compound?
**A.** > 1000 nM

**Q.** Which EC50 [2] does the source give for `C=CC(=O)Nc1ccccc1Nc1nc(N[C@H]2CCCN(S(C)(=O)=O)C2)ncc1Cl` [Compound I-125, (S)—N-(2-((5-chloro-2-((1-(methylsulfonyl)piperidin-3-yl)amino)pyrimidin-4-yl)amino)phenyl)acrylamide] here?
**A.** 101 to 500 nM

**Q.** What about the GI50 [3] of the same compound?
**A.** 101 to 500 nM

**Q.** How did the EC50 [2] turn out when `C=CC(=O)Nc1ccccc1Nc1nc(N[C@@H]2CCC[C@H](C(N)=O)C2)ncc1Cl` [Compound I-119, (1S,3R)-3-((4-((2-acrylamidophenyl)amino)-5-chloropyrimidin-2-yl)amino)cyclohexanecarboxamide] was run?
**A.** 501 to 999 nM

**Q.** And the GI50 [3]?
**A.** 101 to 500 nM

**Q.** With `C=CC(=O)Nc1ccccc1Nc1nc(Nc2cc(C(=O)NOC)ccc2C#N)ncc1Cl` [Compound I-195, 3-((4-((2-acrylamidophenyl)amino)-5-chloropyrimidin-2-yl)amino)-4-cyano-N-methoxybenzamide] as the compound, how does the IC50 [1] read?
**A.** 101 to 500 nM

**Q.** What about the EC50 [2] of the same compound?
**A.** > 1000 nM

**Q.** What does the source list for `O=C(CCl)N[C@@H]1CCCC[C@H]1Nc1nc(N[C@H]2CCCN(C(=O)CO)C2)ncc1C(F)(F)F` [Compound I-35, 2-Chloro-N-((1R,2R)-2-((2-(((S)-1-(2-hydroxyacetyl)piperidin-3-yl)amino)-5-(trifluoromethyl)pyrimidin-4-yl)amino)cyclohexyl)acetamide]?
**A.** IC50 [1]: 101 to 500 nM; EC50 [2]: > 1000 nM

**Q.** For `C=CC(=O)Nc1ccccc1Nc1nc(Nc2cc(C(=O)NOCCO)ccc2C)ncc1Cl` [Compound I-198, 3-((4-((2-acrylamidophenyl)amino)-5-chloropyrimidin-2-yl)amino)-N-(2-hydroxyethoxy)-4-methylbenzamide], which IC50 [1] is on record?
**A.** 101 to 500 nM

**Q.** And the EC50 [2]?
**A.** 101 to 500 nM

**Q.** `C=CC(=O)N[C@@H]1CCCC[C@H]1Nc1nc(Nc2cc(C(=O)NOC)ccc2C)ncc1Cl` [Compound I-190, 3-((4-(((1R,2R)-2-acrylamidocyclohexyl)amino)-5-chloropyrimidin-2-yl)amino)-N-methoxy-4-methylbenzamide] was tested. Which GI50 [3] did it give?
**A.** > 1000 nM

**Q.** How did the IC50 [1] turn out when `C=CC(=O)Nc1ccccc1Nc1nc(N[C@H]2CCCN(C(=O)C(C)(C)O)C2)ncc1Cl` [Compound I-135, (S)—N-(2-((5-chloro-2-((1-(2-hydroxy-2-methylpropanoyl)piperidin-3-yl)amino)pyrimidin-4-yl)amino)phenyl)acrylamide] was run?
**A.** 101 to 500 nM

**Q.** And the EC50 [2]?
**A.** > 1000 nM

**Q.** How did the IC50 [1] turn out when `C=CC(=O)N[C@@H]1CCCC[C@H]1Nc1nc(Nc2cc(C(N)=O)ccc2C)ncc1C(N)=O` (racemic) [Compound I-255, Rac-trans-4-((2-acrylamidocyclohexyl)amino)-2-((5-carbamoyl-2-methylphenyl)amino)pyrimidine-5-carboxamide] was run?
**A.** > 1000 nM

**Q.** And the GI50 [3]?
**A.** > 1000 nM

**Q.** `C=CC(=O)Nc1cc(F)ccc1Nc1nc(Nc2ccc(F)cc2OC)ncc1Cl` [Compound I-213, N-(2-((5-chloro-2-((4-fluoro-2-methoxyphenyl)amino)pyrimidin-4-yl)amino)-5-fluorophenyl)acrylamide] was tested. Which IC50 [1] did it give?
**A.** 101 to 500 nM

**Q.** What about the EC50 [2] of the same compound?
**A.** 101 to 500 nM
